Assay type in all cases: biochemical
For assay [1], the target named is T1, MER (Homo sapiens, UniProt Q12866).
T1 sequence (Q12866 21-999): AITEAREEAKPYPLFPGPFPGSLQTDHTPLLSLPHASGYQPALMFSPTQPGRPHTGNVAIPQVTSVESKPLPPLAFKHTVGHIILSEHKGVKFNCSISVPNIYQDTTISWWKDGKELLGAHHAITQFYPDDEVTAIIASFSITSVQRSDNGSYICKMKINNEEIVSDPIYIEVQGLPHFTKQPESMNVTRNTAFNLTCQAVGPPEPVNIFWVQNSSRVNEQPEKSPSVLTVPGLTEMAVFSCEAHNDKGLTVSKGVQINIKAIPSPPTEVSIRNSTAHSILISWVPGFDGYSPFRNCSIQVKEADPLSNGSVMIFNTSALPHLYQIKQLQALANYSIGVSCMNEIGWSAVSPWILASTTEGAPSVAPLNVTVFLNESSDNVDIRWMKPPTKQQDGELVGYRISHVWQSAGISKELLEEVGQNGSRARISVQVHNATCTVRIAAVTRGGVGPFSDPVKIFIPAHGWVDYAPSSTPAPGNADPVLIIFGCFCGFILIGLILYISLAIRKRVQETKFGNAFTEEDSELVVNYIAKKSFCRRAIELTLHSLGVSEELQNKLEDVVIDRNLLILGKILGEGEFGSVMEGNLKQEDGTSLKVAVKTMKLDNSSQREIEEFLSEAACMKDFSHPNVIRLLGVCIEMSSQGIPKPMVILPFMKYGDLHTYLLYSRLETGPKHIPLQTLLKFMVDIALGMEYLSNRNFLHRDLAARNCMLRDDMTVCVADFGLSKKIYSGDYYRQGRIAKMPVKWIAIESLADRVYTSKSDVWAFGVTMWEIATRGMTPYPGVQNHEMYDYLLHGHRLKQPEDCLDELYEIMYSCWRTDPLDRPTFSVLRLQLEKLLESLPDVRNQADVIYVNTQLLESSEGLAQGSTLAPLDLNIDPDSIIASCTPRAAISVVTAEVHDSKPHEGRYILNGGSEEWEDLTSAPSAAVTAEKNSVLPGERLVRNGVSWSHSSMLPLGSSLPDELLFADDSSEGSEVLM
The experiment in a line: Enzymatic kinase assay (ADP-GLO), MER. As to conditions: 10 μM ATP, poly (Glu4, Tyr1) substrate, 60 min room temperature, luminescence. How it is done:
(§1) This example illustrates an enzymatic assay to determine the inhibitory activity of exemplary compounds of Formula (I) in an aspect of the invention.
(§2) All the kinase reactions were performed in 5 μL using tyrosine kinase buffer with 0.2 μg/μL poly (Glu4, Tyr1) substrate, 10 μM ATP, serial dilution of the inhibitor, and incubated at room temperature for 60 min. After the indicated incubation times, 5 μL ADP-GLO™ reagent (Promega, Madison, Wis.) was added to the reactions and the plate was incubated at room temperature for 40 min. Then, 10 μL of kinase detection reagent was added and after an incubation time of 40 min, luminescence was recorded and IC50 values were determined (Table 1). All 384-well assay plates were read using a GLOMAX™ Discover Microplate Luminometer from Promega (Madison, Wis.). To plot, analyze the data and calculate all kinase reaction biochemical values, both Microsoft Excel and Prism from GraphPad 7 Software (La Jolla, Calif.) were used.

The target in assay [2] is T2, AXL (Homo sapiens, UniProt P30530).
T2 sequence (P30530 26-894): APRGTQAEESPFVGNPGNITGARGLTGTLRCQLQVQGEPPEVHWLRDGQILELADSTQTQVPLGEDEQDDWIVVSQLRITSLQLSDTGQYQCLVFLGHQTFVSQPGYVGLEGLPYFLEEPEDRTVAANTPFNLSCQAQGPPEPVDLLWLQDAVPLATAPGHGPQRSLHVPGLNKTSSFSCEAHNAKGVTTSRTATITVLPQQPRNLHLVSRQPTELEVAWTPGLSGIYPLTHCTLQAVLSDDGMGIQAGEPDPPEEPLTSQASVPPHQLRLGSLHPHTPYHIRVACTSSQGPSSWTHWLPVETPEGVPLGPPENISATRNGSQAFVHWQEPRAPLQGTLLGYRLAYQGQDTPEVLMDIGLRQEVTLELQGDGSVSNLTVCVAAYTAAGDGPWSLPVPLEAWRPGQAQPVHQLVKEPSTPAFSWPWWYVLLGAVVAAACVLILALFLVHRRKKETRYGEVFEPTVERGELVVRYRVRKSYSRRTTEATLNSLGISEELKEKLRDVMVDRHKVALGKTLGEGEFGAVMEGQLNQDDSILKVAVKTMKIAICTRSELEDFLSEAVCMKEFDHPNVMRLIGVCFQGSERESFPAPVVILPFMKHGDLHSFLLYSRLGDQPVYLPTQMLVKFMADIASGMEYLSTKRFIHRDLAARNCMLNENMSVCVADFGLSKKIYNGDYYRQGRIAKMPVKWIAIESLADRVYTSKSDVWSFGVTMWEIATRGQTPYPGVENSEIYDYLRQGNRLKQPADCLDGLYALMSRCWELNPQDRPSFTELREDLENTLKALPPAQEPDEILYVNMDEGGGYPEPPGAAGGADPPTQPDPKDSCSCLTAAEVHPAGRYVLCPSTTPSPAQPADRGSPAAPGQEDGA
The experiment in a line: Enzymatic kinase assay (ADP-GLO), AXL. As to conditions: 10 μM ATP, poly (Glu4, Tyr1) substrate, 60 min room temperature, luminescence. How it is done:
as §1, §2

Assay [3] concerns the target C-MET (Homo sapiens, UniProt P08581). The experiment in a line: Enzymatic kinase assay (ADP-GLO), C-MET. Conditions: 10 μM ATP, poly (Glu4, Tyr1) substrate, 60 min room temperature, luminescence; read-out: Enzymatic assay IC50 (nM) C-MET. How it is done:
as §1
as §2, with “Then, 10 μL of kinase detection reagent was added and after an incubation time of 40 min, luminescence was recorded and IC50 values were determined (Table 1).” left out

Chain of C-MET (P08581 25-1390): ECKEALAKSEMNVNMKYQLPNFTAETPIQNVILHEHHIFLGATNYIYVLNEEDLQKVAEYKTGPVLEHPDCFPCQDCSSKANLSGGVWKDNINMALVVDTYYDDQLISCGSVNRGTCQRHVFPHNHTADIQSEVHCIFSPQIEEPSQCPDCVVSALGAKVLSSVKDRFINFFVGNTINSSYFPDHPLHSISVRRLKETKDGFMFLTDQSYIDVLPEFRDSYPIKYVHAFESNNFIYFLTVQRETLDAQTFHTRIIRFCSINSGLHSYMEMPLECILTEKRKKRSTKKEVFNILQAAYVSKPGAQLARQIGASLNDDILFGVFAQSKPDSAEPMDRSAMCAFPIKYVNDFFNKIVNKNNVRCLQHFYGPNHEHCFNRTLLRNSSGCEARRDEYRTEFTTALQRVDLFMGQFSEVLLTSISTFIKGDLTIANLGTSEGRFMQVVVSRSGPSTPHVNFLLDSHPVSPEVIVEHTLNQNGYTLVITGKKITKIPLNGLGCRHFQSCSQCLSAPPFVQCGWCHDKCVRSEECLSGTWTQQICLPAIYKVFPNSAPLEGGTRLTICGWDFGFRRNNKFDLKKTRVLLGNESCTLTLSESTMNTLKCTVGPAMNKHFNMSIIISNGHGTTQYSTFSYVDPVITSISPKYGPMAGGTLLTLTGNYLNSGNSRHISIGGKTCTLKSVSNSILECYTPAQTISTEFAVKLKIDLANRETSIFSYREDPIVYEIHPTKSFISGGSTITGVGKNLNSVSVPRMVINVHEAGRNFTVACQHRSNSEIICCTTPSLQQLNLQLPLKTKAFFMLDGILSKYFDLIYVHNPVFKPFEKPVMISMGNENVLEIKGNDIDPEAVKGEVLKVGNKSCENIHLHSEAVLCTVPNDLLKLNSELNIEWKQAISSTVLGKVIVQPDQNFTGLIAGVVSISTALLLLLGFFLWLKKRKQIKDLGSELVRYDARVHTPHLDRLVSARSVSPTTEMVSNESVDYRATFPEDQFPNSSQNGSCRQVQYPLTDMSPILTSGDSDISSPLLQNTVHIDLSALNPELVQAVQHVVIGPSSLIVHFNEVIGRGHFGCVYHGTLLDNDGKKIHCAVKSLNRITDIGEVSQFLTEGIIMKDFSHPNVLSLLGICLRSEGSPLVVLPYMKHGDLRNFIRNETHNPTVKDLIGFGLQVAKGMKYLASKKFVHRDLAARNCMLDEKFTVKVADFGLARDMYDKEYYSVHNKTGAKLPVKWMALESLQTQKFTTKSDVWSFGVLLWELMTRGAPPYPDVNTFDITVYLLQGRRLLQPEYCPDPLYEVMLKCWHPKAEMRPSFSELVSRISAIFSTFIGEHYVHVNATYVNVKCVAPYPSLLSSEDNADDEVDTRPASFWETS

`COC1CCN(C(=O)C#Cc2c(Oc3ccc(NC(=O)c4ccnn(-c5ccc(F)cc5)c4=O)cc3F)ccnc2N)CC1` [Example 10, N-(4-(2-amino-3-(3-(4-methoxypiperidin-1-yl)-3-oxoprop-1-ynyl)pyridin-4-yloxy)-3-fluorophenyl)-2-(4-fluorophenyl)-3-oxo-2,3-dihydropyridazine-4-carboxamide]: the results for the IC50 in assay [1], in assay [2] and in assay [3] were less than 1000 nM, less than 100 nM and less than 1000 nM, respectively.
As for `COCCONC(=O)C#Cc1c(Oc2ccc(NC(=O)c3ccnn(-c4ccc(F)cc4)c3=O)cc2F)ccnc1N` [Example 11, N-(4-(2-amino-3-(3-(2-methoxyethoxyamino)-3-oxoprop-1-ynyl)pyridin-4-yloxy)-3-fluorophenyl)-2-(4-fluorophenyl)-3-oxo-2,3-dihydropyridazine-4-carboxamide], the IC50 in assay [1] was less than 1000 nM; in assay [2], less than 100 nM; in assay [3], less than 10 nM.
In the same order, the values of `COCCON(C)C(=O)C#Cc1c(Oc2ccc(NC(=O)c3ccnn(-c4ccc(F)cc4)c3=O)cc2F)ccnc1N` [Example 12, N-(4-(2-amino-3-(3-((2-methoxyethoxy)(methyl)amino)-3-oxoprop-1-ynyl)pyridin-4-yloxy)-3-fluorophenyl)-2-(4-fluorophenyl)-3-oxo-2,3-dihydropyridazine-4-carboxamide] are less than 100 nM, less than 100 nM and less than 100 nM.
For `Nc1nccc(Oc2ccc(NC(=O)c3ccnn(-c4ccc(F)cc4)c3=O)cc2F)c1C#CC(=O)N1CCNCC1` [Example 13, N-(4-(2-amino-3-(3-oxo-3-(piperazin-1-yl)prop-1-ynyl)pyridin-4-yloxy)-3-fluorophenyl)-2-(4-fluorophenyl)-3-oxo-2,3-dihydropyridazine-4-carboxamide] the same measures were less than 100 nM, less than 100 nM and less than 100 nM.
In the same order, the values of `COCCN1CCN(C(=O)C#Cc2c(Oc3ccc(NC(=O)c4ccnn(-c5ccc(F)cc5)c4=O)cc3F)ccnc2N)CC1` [Example 14, N-(4-(2-amino-3-(3-(4-(2-methoxyethyl)piperazin-1-yl)-3-oxoprop-1-ynyl)pyridin-4-yloxy)-3-fluorophenyl)-2-(4-fluorophenyl)-3-oxo-2,3-dihydropyridazine-4-carboxamide] are less than 10 nM, less than 10 nM and less than 10 nM.
For `Nc1nccc(Oc2ccc(NC(=O)c3cccn(-c4ccc(F)cc4)c3=O)cc2F)c1C#CC(=O)N1CCNCC1` [Example 15, N-(4-(2-amino-3-(3-oxo-3-(piperazin-1-yl)prop-1-ynyl)pyridin-4-yloxy)-3-fluorophenyl)-1-(4-fluorophenyl)-2-oxo-1,2-dihydropyridine-3-carboxamide], the IC50 in assay [1], in assay [2] and in assay [3] was less than 100 nM in each case.
For `Nc1nccc(Oc2ccc(NC(=O)c3ccnn(-c4ccc(F)cc4)c3=O)cc2F)c1-c1ccc(Oc2ccccc2)cc1` [Example 20, N-(4-(2-amino-3-(4-phenoxyphenyl)pyridin-4-yloxy)-3-fluorophenyl)-2-4-(fluorophenyl)-3-oxo-2,3-dihydropyridazine-4-carboxamide], the IC50 was less than 1000 nM in assay [1], less than 1000 nM in assay [2] and more than 1000 nM in assay [3].
Regarding `CCCn1cc(-c2c(Oc3ccc(NC(=O)c4ccnn(-c5ccc(F)cc5)c4=O)cc3F)ccnc2N)cn1` [Example 21, N-(4-(2-amino-3-(1-propyl-1H-pyrazol-4-yl)pyridin-4-yloxy)-3-fluorophenyl)-2-(4-fluorophenyl)-3-oxo-2,3-dihydropyridazine-4-carboxamide], the IC50 in assay [1] was less than 100 nM; in assay [2], less than 10 nM; in assay [3] it was more than 1000 nM.
For `CC(C)(C#Cc1c(Oc2ccc(NC(=O)c3ccnn(-c4ccc(F)cc4)c3=O)cc2F)ccnc1N)N1CCNCC1` [Example 22, N-(4-(2-amino-3-(3-methyl-3-(piperazin-1-yl)but-1-ynyl)pyridin-4-yloxy)-3-fluorophenyl)-2-(4-fluorophenyl)-3-oxo-2,3-dihydropyridazine-4-carboxamide] the same measures were less than 100 nM, less than 10 nM and less than 100 nM.
In the same order, the values of `COCCN1CCN(C(C)(C)C#Cc2c(Oc3ccc(NC(=O)c4ccnn(-c5ccc(F)cc5)c4=O)cc3F)ccnc2N)CC1` [Example 23, N-(4-(2-amino-3-(3-(4-(2-methoxyethyl)piperazin-1-yl)-3-methylbut-1-ynyl)pyridine-4-yloxy)-3-fluorophenyl)-2-(4-fluorophenyl)-3-oxo-2,3-dihydropyridazine-4-carboxamide] are less than 100 nM, less than 10 nM and less than 100 nM.
For `COCCN1CCN(CC#Cc2c(Oc3ccc(NC(=O)c4ccnn(-c5ccc(F)cc5)c4=O)cc3F)ccnc2N)CC1` [Example 24] the same measures were less than 10 nM, less than 10 nM and less than 100 nM.
Consider `Nc1nccc(Oc2ccc(NC(=O)c3ccnn(-c4ccc(F)cc4)c3=O)cc2F)c1C#CC1CCNCC1` [Example 25, N-(4-(2-amino-3-(piperidin-4-ylethynyl)pyridine-4-yloxy)-3-fluorophenyl)-2-(4-fluorophenyl)-3-oxo-2,3-dihydropyridazine-4-carboxamide], for which the IC50 in assay [1] was more than 1000 nM; in assay [2], less than 10 nM; in assay [3], less than 10 nM.
Take `CN1CCC(C#Cc2c(Oc3ccc(NC(=O)c4ccnn(-c5ccc(F)cc5)c4=O)cc3F)ccnc2N)CC1` [Example 26, N-(4-(2-amino-3-((1-methylpiperidin-4-yl)ethynyl)pyridin-4-yloxy)-3-fluorophenyl)-2-(4-fluorophenyl)-3-oxo-2,3-dihydropyridazine-4-carboxamide]: the figures for the concentration for half-maximal inhibition (IC50) in assay [1], in assay [2] and in assay [3] were more than 1000 nM, less than 10 nM and less than 10 nM, respectively.
